This note sets out measurements from US10828275B2, “Selective targeting of procoagulant platelets” (NewSouth Innovations Pty Limited, priority 2014, dated 2020).

In assay [1] the test system is washed human platelets. In words: GSAO-AF647 labelling of thrombin and collagen stimulated platelets after preincubation. It counts as cell-based. The following applies: CaCl2 preincubation 15 min. On the procedure:
FIG. 5. […] A. Washed human platelets were untreated or stimulated with thrombin (0.1 units/mL) and collagen (5 μg/mL) or the mitochondrial membrane disrupter CCCP (4 μM). Mitochondrial transmembrane potential was measured using the cationic dye, JC-1. The ratio of distribution of JC-1 between the mitochondria (red fluorescence) and cytosol (green fluorescence) reflects mitochondrial transmembrane potential. […] B-C. […] E. Washed human platelets were preincubated with CaCl2 for 15 min and then untreated or stimulated with thrombin (0.1 units/mL) and collagen (5 μg/mL).

The test system of assay [2] is platelets in human whole blood. The assay is described as follows: Whole blood assay for procoagulant platelet potential, human blood. The note with it: for proportion of procoagulant platelets (GSAO+/P-selectin+): thrombin 2 U/mL, collagen 10 μg/mL, mean±SEM, 16-35 donors. Format: cell-based. An excerpt: FIG. 12. Gating strategy for detection of procoagulant platelets in human whole blood. A. Platelets were identified as CD41a positive and CD45 negative events. B. Threshold values for P-selectin and GSAO fluorescence were set using agonist stimulated sample stained with control IgG isotype and GSCA respectively. C. At rest, very few platelets show the procoagulant phenotype (P-selectin+/GSAO+).
FIG. 13. Assay for procoagulant platelet potential in human blood. […] The maximal response (17.3±1.3%) was observed after stimulation with combination of thrombin and collagen. Results are mean±SEM from 16-35 donors. One-way ANOVA, […], Holm-Sidak multiple comparisons correction. *, p<0.05; ****, p<0.0001.
(§1) Blood from healthy human volunteers was drawn from an antecubital fossa vein using a 21-gauge needle into evacuated sterile collection tubes containing 0.109 M sodium citrate. Following no or minimal tourniquet application, the initial 2 mL of blood was discarded to avoid pre-analytical activation of platelets. The tube was gently mixed by inversion six times. Murine blood samples were collected by cardiac puncture under isoflurane anesthesia. Following midline abdominal and bilateral subcostal surgical incisions to expose the heart, blood was drawn from the left ventricle through a 25G needle into a 1 mL syringe containing sodium citrate (0.109 M) resulting in a blood to citrate ratio of 9:1. The needle was removed and the blood was gently expelled from the syringe into a sterile microcentrifuge tube and mixed gently by pipetting up and down 5 times.
Following collection, tubes were kept upright at room temperature and blood was assayed within 15 min of collection. Incubation and staining steps were performed in a sterile 96-well polypropylene plate. […]
(§2) Fixed cells were analyzed by flow cytometry 1 to 3 h after fixation at an average event rate of 2000 events per sec in an LSRFortessa flow cytometer, equipped with either four (405 nm, 488 nm, 561 nm and 640 nm) or five (395 nm) lasers (BD Biosciences). […]

Assay [3] concerns stimulated platelets. In words: Kinetics of GSAO-AF647 labelling by time lapse flow cytometry. Format: cell-based, human. On the procedure: (§3) FIG. 2. GSAO rapidly enters the activated platelet subpopulation via an organic anion-transporting polypeptide. A. The kinetics of labeling of stimulated platelets with GSAO-AF647 was measured by time lapse flow cytometry. Flow plots are representative of n≥3 separate experiments, and bars and data points are from n≥3 separate experiments. *p<0.05, ****p<0.0001. B-C. […] DIDS inhibited GSAO labelling of P-selectin+ activated platelets at a half-maximal concentration of ˜30 μM. The data points and errors are the mean±range of 1-5 experiments.
The rate of GSAO+ platelet generation after agonist exposure was measured using time lapse flow cytometry. Results are reported for GSAO+ events based on lead in time prior to agonist exposure threshold.

The test system of assay [4] is washed human platelets. In words: GSAO-AF647 labelling and P-selectin exposure of washed platelets (flow cytometry). It counts as cell-based. The note with it: thrombin 0.1 units/mL, collagen 5 μg/mL. The method, then: FIG. 1. GSAO labels a subpopulation of activated platelets. A. Structure of GSAO and site of conjugation of AF647, Oregon Green or biotin. B. Washed human platelets were stimulated with calcium ionophore (1 μM) and activation and plasma membrane compromise measured by flow cytometry. […] C. […] E. Washed human platelets were stimulated with collagen or collagen-related peptide and co-labeling with P-selectin and GSAO-AF647 measured by flow cytometry.
Calcium ionophore treatment of platelets leads to a sustained rise in intracellular calcium and surface elaboration of phosphatidylserine, which are features of both the procoagulant and necrotic phenotype (Bevers et al., 1982). Washed human platelets were treated with calcium ionophore and labeled with GSAO-AF647 and an antibody against the α-granule marker, P-selectin.
To determine whether GSAO labeling reflects this agonist profile, washed human platelets were stimulated with thrombin, collagen, or both thrombin and collagen. […] To determine if signalling through the collagen receptor, GPVI, was sufficient to generate the GSAO+ phenotype, the maximal proportion of GSAO+ platelets generated by collagen was compared with the GPVI specific activator, collagen related peptide.
The relationship between the activated and procoagulant phenotype of platelets remains controversial (Dale et al., 2002; Abaeva et al., 2013). Procoagulant platelets are characterised by presence of phosphatidylserine on the platelet surface, surface binding of plasma derived activated clotting factors, ability to generate thrombin and promotion of fibrin formation. Regardless of the agonist stimulus, 100% of GSAO+ platelets were positive for α-granule P-selectin, which implies that α-granule release is a prerequisite for GSAO labeling after agonist stimulation (FIG. 1). […] Of note, a subpopulation of GSAO− platelets also bound annexin V so platelet necrosis is not required for exposure of phosphatidylserine.

Assay [5] has as its system platelets in mouse blood. In words: Whole blood assay for procoagulant platelet potential, mouse blood. The note with it: thrombin 2 U/mL, CRP 500 ng/mL; n=3 C57Bl6 bloods. It counts as cell-based. The method, then:
FIG. 14. Assay for procoagulant platelet potential in mouse blood. […] Bars and errors are mean±SEM of n=3 C57B16 bloods. One-way ANOVA. **, p<0.01; ****, p<0.0001.
as §1
Following collection, tubes were kept upright at room temperature and blood was assayed within 15 min of collection. […]
as §2

Assay [6] deals with P-selectin+ activated platelets. The assay is described as follows: DIDS effect on GSAO-AF647 labelling of agonist-stimulated platelets (flow cytometry). It counts as cell-based, human. The note with it: thrombin (0.1 units/mL) and collagen (5 μg/mL); 0-200 μM DIDS for 10 min; read-out: half-maximal concentration for inhibition of GSAO labelling of P-selectin+ activated platelets. The method, then:
as §3
The organic anion-transporting polypeptide (OATP) family has been implicated in transport across the plasma membrane of organic anions in the same class as GSAO (Dilda et al., 2009; Dilda et al., 2008). Nine members of the OATP family have been reported in humans (Hagenbuch et al., 2003) and platelets express OATP2B1 (Niessen et al., 2009). DIDS is an inhibitor of OATP class B transporters (Kobayashi et al. 2003) and the present inventors tested its effect on GSAO labelling of agonist-stimulated platelets. DIDS inhibited GSAO labelling of P-selectin+ activated platelets (FIG. 2B) at a half-maximal concentration of ˜30 μM (FIG. 2C). GSAO is retained in the platelet cytoplasm through covalent reaction with closely-spaced protein cysteine thiols (Park et al., 2011) (data not shown).

Assay [7] concerns washed human platelets. The assay is described as follows: ABT-737 induced platelet apoptosis and pancaspase inhibition (flow cytometry). It counts as cell-based. The method, then: FIG. 4. Labeling with GSAO and exposure of P-selectin distinguishes necrotic from apoptotic platelets. […] The percentage of GSAO+ platelets are graphed with respect to P-selectin exposure. C. Washed human platelets were preincubated with 200 μM of ZVADFMK or vehicle control for 15 min then incubated with 30 μM of ABT-737 for 2 h (part F), or stimulated with thrombin (0.1 units/mL) and collagen (5 μg/mL) for 10 min (part G). Labeling with GSAO-AF647 and exposure of P-selection was measured by flow cytometry. D. Washed human platelets from healthy donors (n=5-11) were untreated or stimulated with thrombin (0.1 units/mL), collagen (5 μg/mL), or thrombin (0.1 units/mL) and collagen (5 μg/mL) for 10 min. […] The error bars are mean±SD.
Bcl-XL dependent apoptosis is involved in regulation of platelet life span, although the role of platelet apoptosis in thrombosis is controversial. In order to determine if GSAO can differentiate agonist-induced necrotic versus apoptotic platelets, platelet apoptosis was triggered using the BH3 mimetic ABT-737. GSAO labelled P-selectin negative apoptotic platelets (FIGS. 4A and B). The GSAO+ population also labeled with a polycaspase marker and annexin V, both indicators of apoptotic cells. […] Washed platelets from healthy donors were untreated or stimulated with thrombin, collagen or thrombin and collagen and examined for apoptosis (GSAO+/P-selectin−) and necrosis (GSAO+/P-selectin+) (FIG. 4D). These agonists trigger platelet necrosis but not apoptosis.

Assay [8] has as its system washed human platelets. The assay is described as follows: Direct mitochondrial membrane depolarization and GSAO labelling. The following applies: CCCP 4 μM. It counts as cell-based. The text has this: FIG. 9. Mitochondrial membrane disruption is not sufficient for GSAO labeling.
The cyclophilin D-dependent regulated necrosis pathway is characterized by agonist stimulation, raised intracellular calcium, formation of the mitochondrial transition pore and loss of mitochondrial membrane potential. Dual agonist stimulation of platelets results in loss of mitochondrial transmembrane potential (FIG. 5A). The onset of mitochondrial depolarisation (FIG. 5B) and phosphatidylserine exposure (FIG. 5C) are coincident with GSAO labeling.
Mitochondrial membrane potential was measured using the JC-1 cationic dye (5,5′,6,6′-tetrachloro-1,1′,3,3′-tetraethyl-imidacarbocyanine iodide, Sigma) (Life Technologies). Washed platelets were incubated with JC-1 (2 μM) for 30 min in the dark at 37° C., washed once and analyzed immediately on a BDFACS Canto II. On some occasions, washed platelets were incubated with the mitochondrial membrane disrupter 2-[2-(3-chlorophenyl)hydrazinylyidene]propanedinitrile (CCCP, 4 μM) for 10 min.

Residues, ends and D or L forms follow the SMILES beside them. *: point of attachment. Cbz = O=C(OCc1ccccc1)*; CH2F = FC*

In the case of `[Ca]` [calcium], the “effect of added calcium on GSAO+ agonist stimulated platelets” value in assay [1] is reported as “promoted”.

As for thrombin, in assay [2], the “potency as inducer of procoagulant platelets in human blood” value was “most potent inducer” and the “proportion of procoagulant platelets (GSAO+/P-selectin+)” value amounted to 13.2±1.1%. The “time course of GSAO labeling after agonist” value in assay [3] is reported as “little GSAO labeling compared with unstimulated platelets”. Further, the “GSAO+ platelets generated by agonist” value in assay [4] is reported as “minimal GSAO+ platelets”. In assay [5], the “potency as inducer of murine procoagulant platelets” value is recorded as “most potent inducer”.

As to `O=S(=O)(O)c1cc(N=C=S)ccc1C=Cc1ccc(N=C=S)cc1S(=O)(=O)O` [DIDS], the IC50 in assay [6] was around 30 µM.

Turning to collagen related peptide, the “GSAO+ platelets generated by agonist” value in assay [4] was “majority of the collagen effect was recapitulated”. The “potency as inducer of murine procoagulant platelets” value in assay [5] was “significantly less potent than thrombin but synergizes with thrombin”.

As to collagen, the “proportion of procoagulant platelets (GSAO+/P-selectin+)” value in assay [2] is given as 1.2±0.2%. In assay [3], the “time course of GSAO labeling after agonist” value is on record as “gradual increase in GSAO labeling over 60 sec”. The “GSAO+ platelets generated by agonist” value in assay [4] is listed as “moderate proportion”.

With `COC(=O)C[C@H](NC(=O)[C@H](C)NC(=O)[C@@H](NC(=O)OCc1ccccc1)C(C)C)C(=O)CF` [ZVADFMK] (Cbz-Val-Ala-Asp(OMe)-CH2F), the “effect on ABT-737 induced GSAO+/P-selectin− platelets” value in assay [7] (200 μM ZVADFMK 15 min, then 30 μM ABT-737 2 h) is “reduced”. Moreover, the “effect on GSAO labeling of thrombin and collagen stimulated platelets” value in assay [7] (200 μM ZVADFMK 15 min, then agonists 10 min) is “no effect”.

With `N#CC(C#N)=NNc1cccc(Cl)c1` [CCCP, 2-[2-(3-chlorophenyl)hydrazinylyidene]propanedinitrile], in assay [8], the “GSAO labelling after direct mitochondrial membrane depolarization” value is given as “does not result in GSAO labelling”.

On to `CN(C)CC[C@H](CSc1ccccc1)Nc1ccc(S(=O)(=O)NC(=O)c2ccc(N3CCN(Cc4ccccc4-c4ccc(Cl)cc4)CC3)cc2)cc1[N+](=O)[O-]` [ABT-737], for which, in assay [7] (ABT-737 for 2 h), the platelet phenotype induced result is “induced GSAO+/P-selectin− platelets”.
